Source: patent US12310975B2, “Modulators of BCL6 proteolysis and associated methods of use” (Arvinas Operations, Inc., priority 2019, dated 2025)

Assays:
BCL6 [1] = biological target: T1, BCL6 (Homo sapiens (Human), UniProt P41182); experiment: Immunofluorescence high content imaging of BCL6 degradation in T47D cells; type: cell-based; details: for Dmax: T47D
Method in brief: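 BCL6 loss was quantified by high-content imaging (10×, 4 fields/well) after PFA fixation and anti-BCL6/Alexa-488 staining with Hoechst nuclear and CellMask counterstains. Compounds were applied for 3 days to T47D breast cancer cells in RPMI-10% FBS, 11 points, 3-fold steps, top 0.1 or 1 μM.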

BCL6 [2] = biological target: T1, BCL6; experiment: BCL6 TR-FRET assay (BCL6-Avitag-Biotin / BCoR-Cy5 peptide); type: binding
Method in brief: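 TR-FRET displacement assay: biotinylated His-SUMO-BCL6-Avitag (2 nM) pre-incubated 30 min at room temperature with compound (12-point 3-fold titration), then BCoR-Cy5 peptide (100 nM) and Eu-streptavidin (2 nM) added. Buffer: 50 mM HEPES pH 7.5, 125 mM NaCl, 0.01% Triton X, glutathione or DTT, 0.03% BSA. Read after 2 h.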

| SMILES | Dmax (BCL6 [1]) [%] | EC50 (BCL6 [2]) [nM] | IC50 (BCL6 [2]; read-out: IC50) [nM] | also measured |
| --- | --- | --- | --- | --- |
| CNC(=O)COc1cc2cc(Nc3nc(N4CCN(C(C)(C)CN5CCN(c6ccc7c(c6)C(=O)N(C6CCC(=O)NC6=O)C7=O)CC5)CC4)ncc3Cl)ccc2n(C)c1=O (stereo not drawn) [compound 279, 2-{[6-({5-chloro-2-[4-(1-{4-[2-(2,6-dioxopiperidin-3-yl)-1,3-dioxo-2,3-dihydro-1H-isoindol-5-yl]piperazin-1-yl}-2-methylpropan-2-yl)piperazin-1-yl]pyrimidin-4-yl}amino)-1-methyl-2-oxo-1,2-dihydroquinolin-3-yl]oxy}-N-methylacetamide] | 50 to 70 | 10 to 50 |  | IC50 (BCL6 [1]): 10 to 50 nM |
| CC(=O)COc1cc2cc(Nc3nc(N4CCN(C5CCCN(c6ccc7c(c6)C(=O)N(C6CCC(=O)NC6=O)C7=O)C5)CC4)ncc3Cl)ccc2n(C)c1=O (stereo not drawn) [compound 161, 5-(3-(4-(5-chloro-4-((1-methyl-2-oxo-3-(2-oxopropoxy)-1,2-dihydroquinolin-6-yl)amino)pyrimidin-2-yl)piperazin-1-yl)piperidin-1-yl)-2-(2,6-dioxopiperidin-3-yl)isoindoline-1,3-dione] |  |  |  | Dmax (BCL6 [1]; maximum, class symbols A-C): < 50%; DC50 (BCL6 [1]; class symbols A-D, read-out: EC50 (nM)*): 10 to 50 nM; IC50 (BCL6 [2]; class symbols A-D, read-out: IC50 (nM)***): 10 to 50 nM |
| CN1C(=O)CCc2cc(Nc3nc(N4CCN(CC5CCN(c6ccc7c(c6)C(=O)N(C6CCC(=O)NC6=O)C7=O)CC5)CC4)ncc3Cl)ccc21 (stereo not drawn) [compound 369, 5-{4-[(4-{5-chloro-4-[(1-methyl-2-oxo-1,2,3,4-tetrahydroquinolin-6-yl)amino]pyrimidin-2-yl}piperazin-1-yl)methyl]piperidin-1-yl}-2-(2,6-dioxopiperidin-3-yl)-2,3-dihydro-1H-isoindole-1,3-dione] |  | > 100 |  | IC50 (BCL6 [1]; T47D cells): ≥ 100 nM |

Second part, led by results:

| Dmax (BCL6 [1]) [%] | EC50 (BCL6 [2]) [nM] | IC50 (BCL6 [2]; read-out: IC50) [nM] | SMILES | also measured |
| --- | --- | --- | --- | --- |
| < 50 |  | 50 to 100 | CNC(=O)COc1cc2cc(Nc3nc(N4CCOCC4)ncc3Cl)ccc2n(CCCOc2ccc3c(c2)C(=O)N(C2CCC(=O)NC2=O)C3=O)c1=O (stereo not drawn) [compound 474, 2-[(6-{[5-chloro-2-(morpholin-4-yl)pyrimidin-4-yl]amino}-1-(3-{[2-(2,6-dioxopiperidin-3-yl)-1,3-dioxo-2,3-dihydro-1H-isoindol-5-yl]oxy}propyl)-2-oxo-1,2-dihydroquinolin-3-yl)oxy]-N-methylacetamide] |  |
| 50 to 70 |  | < 10 | CNC(=O)COc1cc2cc(Nc3nc(N4CCC(CN5CCC6(C5)CN(c5cccc7c5C(=O)N(C5CCC(=O)NC5=O)C7=O)C6)CC4)ncc3Cl)ccc2n(C(C)C)c1=O (stereo not drawn) [compound 502, 2-{[6-({5-chloro-2-[4-({2-[2-(2,6-dioxopiperidin-3-yl)-1,3-dioxo-2,3-dihydro-1H-isoindol-4-yl]-2,6-diazaspiro[3.4]octan-6-yl}methyl)piperidin-1-yl]pyrimidin-4-yl}amino)-2-oxo-1-(propan-2-yl)-1,2-dihydroquinolin-3-yl]oxy}-N-methylacetamide] |  |
